Test results as given in patent US10596212B2, “Mangifera indica as a Sirtuin 1 activating agent” (Vital Solutions Swiss AG, priority 2014, dated 2020).

Molecular target: T1, human recombinant SIRT1 (Homo sapiens, UniProt Q96EB6)
T1 construct: purchased Cayman Chemical
T1 sequence (Q96EB6 1-747): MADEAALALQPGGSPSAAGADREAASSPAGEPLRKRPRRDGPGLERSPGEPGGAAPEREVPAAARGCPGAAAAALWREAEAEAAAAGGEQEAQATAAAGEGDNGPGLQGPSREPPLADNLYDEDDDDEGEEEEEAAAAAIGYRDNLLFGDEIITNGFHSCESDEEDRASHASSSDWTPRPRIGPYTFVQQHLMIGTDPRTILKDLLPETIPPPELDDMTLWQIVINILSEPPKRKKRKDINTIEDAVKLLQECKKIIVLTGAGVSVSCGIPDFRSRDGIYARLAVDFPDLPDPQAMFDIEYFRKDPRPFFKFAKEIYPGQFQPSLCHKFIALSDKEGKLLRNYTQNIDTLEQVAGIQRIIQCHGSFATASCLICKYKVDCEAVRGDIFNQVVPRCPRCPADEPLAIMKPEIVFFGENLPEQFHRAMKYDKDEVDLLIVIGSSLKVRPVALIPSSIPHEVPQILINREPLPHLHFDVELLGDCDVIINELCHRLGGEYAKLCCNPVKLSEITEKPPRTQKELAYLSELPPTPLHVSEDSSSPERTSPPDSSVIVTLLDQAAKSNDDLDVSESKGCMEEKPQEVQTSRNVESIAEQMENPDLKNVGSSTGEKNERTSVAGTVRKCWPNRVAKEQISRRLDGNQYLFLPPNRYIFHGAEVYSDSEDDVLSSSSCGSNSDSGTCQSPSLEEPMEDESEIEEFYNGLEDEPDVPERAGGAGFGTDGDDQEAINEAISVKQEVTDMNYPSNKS
Test: SIRT1 Direct Fluorescent Screening Assay (Cayman Chemical), SIRT1 activation
Type: biochemical
Conditions: positive control, working concentration 1 mM, final assay concentration 32.5 μg/ml
Procedure: The assay was performed using SIRT1 Direct Fluorescent Screening Assay kit, (Cayman Chemical). In the assay resveratrol was used as a positive comparative control in the working concentration of 1 mM, or 228 μg/ml corresponding to a final assay concentration of 32.5 μg/ml.
Cayman's SIRT1 Direct Fluorescent Screening Assay Kit is fluorescence-based method for screening SIRT1 inhibitors or activators. In the first step, the substrate is incubated with human recombinant SIRT1 along with its co-substrate NAD+. Deacetylation sensitizes the substrate such that treatment with the developer in the second step releases a fluorescent product. The fluorophore is analyzed using an excitation wavelength of 350-360 nm and an emission wavelength of 450-465 nm.
The activation is calculated as % activation=(Sample−Initial Activity)/Initial Activity*100.

activation of SIRT1: 37.5%
SMILES: Oc1ccc(C=Cc2cc(O)cc(O)c2)cc1 [resveratrol]
